{
  "source": "patent US20090232761A1",
  "about": "“Use of a Composition Comprising Pentane-1, 5-Diol as Deodorant” (priority 2005, published 2009)",
  "assay": "Napkin sprayed with pentane-1,5-diol solution, dried, used to remove urine; smell assessed",
  "design": "species or system human being",
  "conditions": "active solutions containing 10% (v/v) and 30% (v/v) sprayed onto disposable napkin, dried at room temperature; control water alone",
  "text": "Active solutions containing 10% (v/v) and 30% (v/v) pentane-1,5-diol were sprayed onto a disposable napkin until the complete area of the napkin was moistened. The napkin was left at room temperature until the napkin was dry. The napkin was then used to remove urine from a human being. […] As a control was water used alone. The same amount of water and the active solution were used.",
  "data": [
    {"smiles": "OCCCCCO", "note": "[pentane-1,5-diol]", "values": [
      {"measurement": "smell of urine from the napkin", "value": "no smell of urine"}
    ]}
  ]
}
